The values below come from US7691857B2, “Muscarinic agents as therapeutic compounds” (Muscagen Limited, priority 2003, dated 2010).

As usually defined, the EC50 is the concentration that produces a half-maximal response.

The assay deals with M1 receptor (Oryctolagus cuniculus, UniProt G1SR55). Put plainly: Functional assay of M1 receptor activity, electrically stimulated rabbit vas deferens preparation. The text has this: M1 receptor activity of a compound of the invention may be examined with the rabbit vas deferens using a method developed from that described previously (Dorje F, Rettenmayr N, Mutschler E and Lambrecht G, Eur J Pharmacol 1991, 203, 417-420). The tissue is stimulated electrically to contract and the conditions are optimized so that M1 receptor agonists produce a concentration-related inhibition of contraction height. Any activity at M2 receptors is indicated by an increase in the contraction height. M2 receptor activity may also be recorded from increases in contraction of the guinea-pig paced left atria. M3 receptor activity is measured from the contraction of the guinea-pig ileum. […]
Chain of M1 receptor (G1SR55 1-460): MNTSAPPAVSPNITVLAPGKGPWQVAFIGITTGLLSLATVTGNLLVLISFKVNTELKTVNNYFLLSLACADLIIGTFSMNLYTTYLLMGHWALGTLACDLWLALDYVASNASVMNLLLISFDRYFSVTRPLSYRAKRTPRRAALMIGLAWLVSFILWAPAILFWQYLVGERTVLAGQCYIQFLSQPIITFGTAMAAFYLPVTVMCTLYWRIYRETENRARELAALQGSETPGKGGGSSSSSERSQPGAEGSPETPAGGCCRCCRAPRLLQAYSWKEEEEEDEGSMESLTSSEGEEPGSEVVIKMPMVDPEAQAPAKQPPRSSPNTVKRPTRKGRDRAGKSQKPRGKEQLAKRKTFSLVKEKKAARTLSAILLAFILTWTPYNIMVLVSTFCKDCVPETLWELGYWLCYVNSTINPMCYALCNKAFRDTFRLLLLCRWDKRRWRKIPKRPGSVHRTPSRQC
Initial evaluation of the test compound is by assay of functional tissue responses. This has the advantage that it readily discriminates between agonist, partial agonist and antagonist activity. […]
Male New Zealand white rabbits (1.47-3.4 Kg) are killed by a blow to the back of the head and vasa deferentia removed, dissected free of connective tissue and divided into prostatic and epididmyal portions. […] Isometric tension is recorded by computer at a sampling rate of 100 Hz, using Powerlab/200 (ADInstruments) software and MacLab bridge amplifiers. […]

Regarding `COCC1CNCC2(C3CCC3)C1OC(=O)N2Cc1ccccc1` (centres unmarked) [Example 1, 3-Benzyl-3a-cyclobutyl-7-methoxymethyl-2-oxo-octahydro-oxazolo[4,5-c]pyridin-5-ium], where the note is “M1 agonism, inhibition of twitch height in field-stimulated rabbit vas deferens, read-out: potency (EC50 value)”, the EC50 was found to be 100 nM. Further, under “rabbit vas deferens functional tissue response”, the “partial M1 agonist (extent of agonism)” value came to 50%.
